Source: the supplement of paper PMC10307832

Experiments:
Test in all cases: relative viability (nuclei count vs DMSO), 5 days (fraction); higher = more cells survive
[1] = compound: CN(C)C/C=C/C(=O)Nc1cc2c(Nc3ccc(F)c(Cl)c3)ncnc2cc1O[C@H]1CCOC1 [Afatinib] + CC(=O)c1c(C)c2cnc(Nc3ccc(N4CCNCC4)cn3)nc2n(C2CCCC2)c1=O [Palbociclib] (partner 0.5 µM)
Procedure, shortened: (§1)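 Lung cancer cell lines in 1536-well plates were dosed by pin tool the day after seeding, either with one drug alone or with a fixed anchor-drug dose plus five library-drug doses (not always all listed) in √10 steps. After 5 days, cells were fixed and their nuclei stained in one step (final 0.05% Triton X-100, 1% formaldehyde, 1 ug/ml Hoechst), then counted on 4× images. Relative viability is the nuclei count in treated wells divided by that in vehicle wells. Values are medians of duplicate plates.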

[2] = compound: CN(C)C/C=C/C(=O)Nc1cc2c(Nc3ccc(F)c(Cl)c3)ncnc2cc1O[C@H]1CCOC1 [Afatinib] + Cc1nc(NC(=O)N2CCC[C@H]2C(N)=O)sc1-c1ccnc(C(C)(C)C(F)(F)F)c1 [Alpelisib] (partner 2 µM)
Procedure, shortened: as §1

[3] = compound: CN(C)C/C=C/C(=O)Nc1cc2c(Nc3ccc(F)c(Cl)c3)ncnc2cc1O[C@H]1CCOC1 [Afatinib] + Nc1nc2[nH]cc(CCc3ccc(C(=O)N[C@@H](CCC(=O)O)C(=O)O)cc3)c2c(=O)[nH]1 [Pemetrexed] (partner 0.2 µM)
Procedure, shortened: as §1

[4] = compound: CN(C)C/C=C/C(=O)Nc1cc2c(Nc3ccc(F)c(Cl)c3)ncnc2cc1O[C@H]1CCOC1 [Afatinib] + O=C(c1cc(Cc2n[nH]c(=O)c3ccccc23)ccc1F)N1CCN(C(=O)C2CC2)CC1 [Olaparib] (partner 8 µM)
Procedure, shortened: as §1

Cell Line	relative viability ([1]; first compound 0.005 µM)	relative viability ([1]; first compound 0.01581 µM)	relative viability ([1]; first compound 0.05 µM)	relative viability ([1]; first compound 0.1581 µM)	relative viability ([1]; first compound 0.5 µM)	relative viability ([2]; first compound 0.005 µM)	relative viability ([2]; first compound 0.01581 µM)	relative viability ([2]; first compound 0.05 µM)	relative viability ([2]; first compound 0.1581 µM)	relative viability ([2]; first compound 0.5 µM)	relative viability ([3]; first compound 0.005 µM)	relative viability ([3]; first compound 0.01581 µM)	relative viability ([3]; first compound 0.05 µM)	relative viability ([3]; first compound 0.1581 µM)	relative viability ([3]; first compound 0.5 µM)	relative viability ([4]; first compound 0.005 µM)	relative viability ([4]; first compound 0.01581 µM)	relative viability ([4]; first compound 0.05 µM)	relative viability ([4]; first compound 0.1581 µM)	relative viability ([4]; first compound 0.5 µM)
LOU-NH91	0.533	0.535	0.538	0.564	0.538	0.494	0.492	0.537	0.501	0.523	0.371	0.424	0.393	0.433	0.418	0.701	0.704	0.701	0.687	0.742
LU99A	0.451	0.39	0.425	0.36	0.391	0.557	0.468	0.438	0.452	0.489	0.158	0.192	0.18	0.206	0.181	0.253	0.266	0.249	0.248	0.264
LXF-289	0.604	0.561	0.553	0.486	0.533	0.97	1.01	1.02	0.919	0.975	0.909	0.88	0.843	0.879	0.824	1.12	1.06	1.09	1.04	1.03
NCI-H23	0.561	0.469	0.482	0.486	0.448	0.771	0.735	0.725	0.636	0.561	0.667	0.609	0.586	0.704	0.567	0.331	0.303	0.37	0.291	0.333
NCI-H322M	0.467	0.434	0.394	0.358	0.378	0.666	0.519	0.495	0.384	0.335	0.563	0.534	0.523	0.531	0.509	0.743	0.573	0.559	0.559	0.531
NCI-H358	0.14	0.111	0.12	0.118	0.0955	0.668	0.488	0.324	0.255	0.37	0.16	0.146	0.153	0.137	0.141	0.48	0.586	0.314	0.145	–
NCI-H441	0.234	0.231	0.163	0.183	0.207	0.831	0.763	0.751	0.581	0.626	0.255	0.246	0.25	0.283	0.274	0.491	0.521	0.649	0.441	0.512
NCI-H460	0.165	0.175	0.237	0.184	0.242	0.52	0.509	0.484	0.543	0.349	0.0534	0.0601	0.0633	0.0503	0.0638	0.373	0.407	0.439	0.458	0.491
NCI-H520	0.245	0.241	0.229	0.219	0.229	1.07	0.903	1.02	1.01	0.872	0.771	0.717	0.749	0.725	0.668	0.313	0.32	0.329	0.365	0.368
NCI-H647	0.37	0.335	0.385	0.368	0.312	1.22	1.13	1.17	1.03	1.05	0.174	0.169	0.179	0.188	0.107	0.559	0.563	0.526	0.414	0.552
NCI-H650	0.343	0.34	0.395	0.331	0.336	1.23	1.11	1.14	1.25	1.06	0.922	0.849	0.951	0.854	0.87	0.339	0.429	0.441	0.407	0.399
NCI-H661	0.387	0.339	0.347	0.34	0.337	0.666	0.389	0.475	0.398	0.349	0.956	0.861	0.809	0.616	0.688	0.811	0.732	0.638	0.589	0.637
NCI-H838	0.216	0.227	0.242	0.214	0.233	0.93	1.1	1.06	0.905	1.1	0.246	0.243	0.259	0.243	0.259	0.803	0.723	0.819	0.757	0.815
NCI-H1355	0.397	0.338	0.351	0.274	0.315	0.782	0.89	0.918	0.656	0.645	1.07	1.01	0.946	0.906	0.974	0.723	0.768	0.713	0.716	0.67
NCI-H1395	0.592	0.572	0.625	0.591	0.606	1.11	1.17	1.08	1.41	1.29	0.951	0.811	0.827	0.92	0.752	0.471	0.475	0.463	0.483	0.49
NCI-H1437	0.305	0.294	0.281	0.31	0.341	0.99	1.06	1.04	0.924	1.01	0.32	0.298	0.339	0.324	0.283	0.657	0.64	0.642	0.596	0.569

Cell Line	relative viability ([1]; first compound 0.005 µM)	relative viability ([1]; first compound 0.01581 µM)	relative viability ([1]; first compound 0.05 µM)	relative viability ([1]; first compound 0.1581 µM)	relative viability ([1]; first compound 0.5 µM)	relative viability ([2]; first compound 0.005 µM)	relative viability ([2]; first compound 0.01581 µM)	relative viability ([2]; first compound 0.05 µM)	relative viability ([2]; first compound 0.1581 µM)	relative viability ([2]; first compound 0.5 µM)	relative viability ([3]; first compound 0.005 µM)	relative viability ([3]; first compound 0.01581 µM)	relative viability ([3]; first compound 0.05 µM)	relative viability ([3]; first compound 0.1581 µM)	relative viability ([3]; first compound 0.5 µM)	relative viability ([4]; first compound 0.005 µM)	relative viability ([4]; first compound 0.01581 µM)	relative viability ([4]; first compound 0.05 µM)	relative viability ([4]; first compound 0.1581 µM)	relative viability ([4]; first compound 0.5 µM)
NCI-H1651	0.561	0.508	0.501	0.495	0.459	1.02	0.881	0.906	0.953	0.849	0.553	0.539	0.57	0.569	0.54	0.173	0.186	0.179	0.17	0.21
NCI-H1666	0.656	0.617	0.645	0.673	0.688	0.968	0.605	0.505	–	0.497	0.85	0.768	0.843	0.704	0.69	0.78	0.792	0.75	0.712	0.681
NCI-H1734	0.369	0.34	0.298	0.339	0.319	0.675	0.747	0.735	0.697	0.671	0.411	0.374	0.406	0.375	0.453	0.666	0.569	0.621	0.58	0.551
NCI-H1755	0.463	0.438	0.441	0.456	0.433	0.492	0.89	0.882	0.888	0.929	0.405	0.611	0.463	0.402	0.421	0.906	0.857	0.921	0.864	0.813
NCI-H1792	0.73	0.661	0.63	0.599	0.651	0.64	0.732	0.722	0.674	0.668	0.781	0.647	0.751	0.824	0.522	0.437	0.531	0.506	0.526	0.489
NCI-H1793	0.258	0.3	0.273	0.218	0.21	0.57	0.658	0.555	0.544	0.527	0.814	0.582	0.584	0.582	0.503	0.659	0.633	0.461	0.398	0.582
NCI-H1915	0.564	0.539	0.526	0.506	0.491	1.09	1.09	1.06	1.02	0.972	0.532	0.491	0.468	0.52	0.427	0.255	–	0.244	0.27	0.259
NCI-H1944	0.287	0.33	0.272	0.206	0.237	0.677	0.763	0.693	0.465	0.518	0.605	0.583	0.511	0.378	0.453	0.384	0.364	0.39	0.326	0.332
NCI-H1975	0.72	0.469	0.472	0.253	0.21	0.628	0.511	0.43	0.197	0.206	0.287	0.28	0.295	0.276	0.209	0.917	0.771	0.778	0.59	0.321
NCI-H1993	0.532	0.571	0.539	0.538	0.577	0.608	0.771	0.721	0.765	0.705	0.569	0.526	0.638	0.551	0.506	0.828	0.883	0.641	0.557	0.704
NCI-H2009	0.238	0.25	0.253	0.231	0.247	1.23	1.15	1.22	1.17	1.14	1.04	1.01	0.977	1.03	1.01	0.578	0.699	0.743	0.648	0.665
NCI-H2023	0.382	0.333	0.284	0.265	0.275	0.608	0.544	0.446	0.408	0.434	0.222	0.209	0.231	0.189	0.208	0.514	0.444	0.489	0.464	0.481
NCI-H2085	0.445	0.448	0.42	0.36	0.419	0.944	0.873	0.812	0.659	0.803	0.821	0.671	0.842	0.681	0.699	0.751	0.691	0.659	0.603	0.648
NCI-H2087	0.232	0.185	0.226	0.253	0.191	1.23	1.18	1	1.28	1.02	0.763	0.668	0.664	0.671	0.652	0.511	0.669	0.609	0.525	0.593
NCI-H2126	0.342	0.338	0.364	0.342	0.314	0.726	0.722	0.653	0.504	0.444	0.715	0.66	0.623	0.469	0.45	0.934	0.881	0.85	0.645	0.665
NCI-H2170	0.389	0.357	0.275	0.139	0.116	0.571	0.421	0.314	0.207	0.233	0.251	0.245	0.25	0.214	0.212	0.624	0.598	0.475	0.169	0.155
